Laboratory results reported in patent publication EP0596449A2, “Serotonin receptor antagonists for treating myocardial ischemia” (E.R. SQUIBB & SONS, INC., priority 1992, dated 1994).
Marks after values point to notes of the source that are not given here.

Tested on: globally ischemic rat hearts
Assay: Global ischemia (25 min) and reperfusion (30 min) in isolated perfused rat hearts, 5HT2 antagonists
Protocol: To determine the effect of serotonin receptor agonists and antagonists, male Sprague-Dawley rats (450-550 g) were prepared as described below. The rats were anesthetized using 100 mg/kg sodium pentobarbital (i.p.). They were intubated and then treated with i.v. heparin (1000 U/kg). While being mechanically ventilated, their hearts were perfused in situ via retrograde cannulation of the aorta. The hearts were then excised and […] moved to a Langendorff apparatus where they were perfused with Krebs-henseleit bicarbonate buffer solution ((mM): 112 NaCI, 25 NaHC03, 5 KCI, 1.2 MgS04, 1 KH2P04, 1.25 CaC12, 2 pyruvate and 11.5 dextrose bubbled with 95% 02 - 5% C02) at a constant perfusion pressure (85 mm Hg). A water-filled latex balloon attached to a metal cannula was then inserted into the left ventricle and connected to a Statham pressure transducer for measurement of left ventricular pressure. The hearts were allowed to equilibrate for 15 min, at which time end diastolic pressure (EDP) was adjusted to 5 mm Hg and this balloon volume was maintained for the duration of the experiment. Pre-ischemia or pre-drug function, heart rate and coronary flow (extracorporeal electromagnetic flow probe) were then measured. Left ventricular developed pressure (LVDP) was calculated from the difference between left ventricular peak systolic pressure and EDP. Cardiac temperature was maintained throughout the experiment by submerging the hearts in 37 ° C buffer which was allowed to accumulate in a stoppered, heated chamber.
The model of global ischemia in isolated rat hearts was designed such that any protective effects observed are generally due to a direct cardioprotective effect and not to effects on cornonary or peripheral vascular tone. Also, because the hearts are perfused with an oxygenated buffer solution, platelets or the normal components of an inflammatory response are probably not important mediators of the ischemic/reperfusion injury observed in this model. […] Agents which exert their protective effects either through their effects on the peripheral or coronary vasculature such as nitrates or agents which act on blood or act on some component of the inflammatory response such as thromboxane A2 receptor antagonists are generally ineffective in this model.
The hearts were divided into the following groups: 1. Vehicle (0.1% DMSO) treatment beginning 10 minutes before the onset of ischemia (n = 8). 2. 0.3-10 µM ketanserin treatment beginning 10 minutes before the onset of ischemia (n = 4-5 per group). 3. 10 µM ketanserin given only during reperfusion (n = 4). 4. 0.1-10 µM cinanserin treatment beginning 10 minutes before global ischemia (n = 4-10). 5. 1-10 µM LY 53857 treatment beginning 10 minutes before the onset of ischemia (n = 4 per group). After 10 minutes of vehicle or drug pretreatment, the hearts were subjected to 25 minutes of total global ischemia which was initiated by shutting off the perfusate flow. Reperfusion was begun (without drug except in the case of group 3 above) and allowed to continue for 30 minutes. At this time, final measurements of EDP, LVDP and coronary flow were obtained. Cumulative LDH relase was measured in the reperfusate and was used as the index of cellular and membrane viability. In all hearts, the time to contracture during ischemia was measured and used as an index of cardioprotection during ischemia. Time to contracture is defined as the time (minutes) necessary for the first 5 mm Hg increase in EDP to occur during global ischemia. The data were expressed as the percent change in time to contracture from vehicle.

[1] = 0.3 µM, 30 Min Post-Reperfusion
[2] = 0.3 µM, Pre-Ischemia, Post-Drug
[3] = 3 µM (Reper), given only during reperfusion, 30 Min Post-Reperfusion
[4] = 3 µM (Reper), given only during reperfusion, Pre-Ischemia, Post-Drug
[5] = 3 µM (Reper), given only during reperfusion, Pre-Ischemia, Pre-Drug

Compound: O=C(c1ccc(F)cc1)C1CCN(CCn2c(=O)[nH]c3ccccc3c2=O)CC1 [Ketanserin, ketanserin]
- Coronary Flow [1]: 13±2^a mL/min/g
- HR [1]: 266±18^a beats/min
- LVDP [1]: 20±5^a mmHg
- Coronary Flow [2]: 16 ± 2 mL/min/g
- HR [2]: 275±6 beats/min
- LVDP [2]: 141±10 mmHg
- Coronary Flow (0.3 µM, Pre-Ischemia, Pre-Drug): 20 ± 2 mL/min/g
- HR (0.3 µM, Pre-Ischemia, Pre-Drug): 291±2 beats/min
- LVDP (0.3 µM, Pre-Ischemia, Pre-Drug): 146±5 mmHg
- Coronary Flow (1 µM, 30 Min Post-Reperfusion): 10±1^a mL/min/g
- HR (1 µM, 30 Min Post-Reperfusion): 243±35^a beats/min
- LVDP (1 µM, 30 Min Post-Reperfusion): 29±5^a mmHg
- Coronary Flow (1 µM, Pre-Ischemia, Post-Drug): 15 ± 1 mL/min/g
- HR (1 µM, Pre-Ischemia, Post-Drug): 272±11 beats/min
- LVDP (1 µM, Pre-Ischemia, Post-Drug): 128±4 mmHg
- Coronary Flow (1 µM, Pre-Ischemia, Pre-Drug): 19 ± 1 mL/min/g
- HR (1 µM, Pre-Ischemia, Pre-Drug): 311±16 beats/min
- LVDP (1 µM, Pre-Ischemia, Pre-Drug): 130±6 mmHg
- Coronary Flow [3]: 14±1^a mL/min/g
- HR [3]: 196±14^a,b beats/min
- LVDP [3]: 33±6^a mmHg
- Coronary Flow [4]: 17 ± 2 mL/min/g
- HR [4]: 285±11 beats/min
- LVDP [4]: 130±5 mmHg
- Coronary Flow [5]: 19 ± 1 mL/min/g
- HR [5]: 292±15 beats/min
- LVDP [5]: 134±4 mmHg
- Coronary Flow (3 µM, 30 Min Post-Reperfusion): 13±1^a mL/min/g
- HR (3 µM, 30 Min Post-Reperfusion): 246±22^a beats/min
- LVDP (3 µM, 30 Min Post-Reperfusion): 53±7^a,b mmHg
- Coronary Flow (3 µM, Pre-Ischemia, Post-Drug): 15 ± 1 mL/min/g
- HR (3 µM, Pre-Ischemia, Post-Drug): 244±16^a beats/min
- LVDP (3 µM, Pre-Ischemia, Post-Drug): 127±9 mmHg
- Coronary Flow (3 µM, Pre-Ischemia, Pre-Drug): 19 ± 1 mL/min/g
- HR (3 µM, Pre-Ischemia, Pre-Drug): 310±13 beats/min
- LVDP (3 µM, Pre-Ischemia, Pre-Drug): 128±8 mmHg
- Coronary Flow (10 µM, 30 Min Post-Reperfusion): 13±2^a mL/min/g
- HR (10 µM, 30 Min Post-Reperfusion): 220±22^a beats/min
- LVDP (10 µM, 30 Min Post-Reperfusion): 66±4^a,b mmHg
- Coronary Flow (10 µM, Pre-Ischemia, Post-Drug): 14 ± 2 mL/min/g
- HR (10 µM, Pre-Ischemia, Post-Drug): 196±19^a,b beats/min
- LVDP (10 µM, Pre-Ischemia, Post-Drug): 128±5 mmHg
- Coronary Flow (10 µM, Pre-Ischemia, Pre-Drug): 19 ± 1 mL/min/g
- HR (10 µM, Pre-Ischemia, Pre-Drug): 290±6 beats/min
- LVDP (10 µM, Pre-Ischemia, Pre-Drug): 135±5 mmHg
- EC25 (Rattus norvegicus, drug given 10 minutes before global ischemia, read-out: EC25 (concentration which increased the time to contracture 25% above vehicle group values)): 5.5 µM
- cumulative LDH release during reperfusion (given only during reperfusion (Reper)): did not cause a reduction in LDH release
- protective effect for any variable measured (given only during reperfusion at 3 µM): no protective effect
- reperfusion LDH release (only at the 10 µM concentration, Figure 2B): significantly reduced LDH relase
